In the test the test system is BDF1 mice, B16 melanoma ip, median survival T/C. Briefly: NCI In Vivo Anticancer Drug Screen. Data for tumor model B16 Melanoma (intraperitoneal) in B6D2F1 (BDF1) mice. Conditions: endpoint: median survival time, higher = longer survival. Put shortly:
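Values are ratios of treated (T) to vehicle-control (C) measurements of survival or tumor size in tumor-bearing mice.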

Where [1] appears, read: dose: 50.0 mg/kg/injection, schedule: Q01DX009 (ip), vehicle: saline with Tween-80.
The mark [2] stands for this setting: dose: 100.0 mg/kg/injection, schedule: Q01DX009 (ip), vehicle: saline with Tween-80.
Setting [3] is: dose: 200.0 mg/kg/injection, schedule: Q01DX009 (ip), vehicle: saline with Tween-80.
[4] abbreviates: dose: 25.0 mg/kg/injection, schedule: Q01DX009 (ip), vehicle: Klucel (hydroxypropylcellulose) (HPC).
Where [5] appears, read: dose: 100.0 mg/kg/injection, schedule: Q01DX009 (ip), vehicle: saline.
Where [6] appears, read: dose: 200.0 mg/kg/injection, schedule: Q01DX009 (ip), vehicle: saline.
Where [7] appears, read: dose: 400.0 mg/kg/injection, schedule: Q01DX009 (ip), vehicle: saline.
Setting [8] is: dose: 100.0 mg/kg/injection, schedule: Q04DX003 (ip), vehicle: Klucel (hydroxypropylcellulose) (HPC).
Setting [9] is: dose: 200.0 mg/kg/injection, schedule: Q04DX003 (ip), vehicle: Klucel (hydroxypropylcellulose) (HPC).
Setting [10] is: dose: 400.0 mg/kg/injection, schedule: Q04DX003 (ip), vehicle: Klucel (hydroxypropylcellulose) (HPC).
The mark [11] stands for this setting: dose: 6.25 mg/kg/injection, schedule: Q01DX009 (ip), vehicle: saline with Tween-80.
The mark [12] stands for this setting: dose: 12.5 mg/kg/injection, schedule: Q01DX009 (ip), vehicle: saline with Tween-80.
The mark [13] stands for this setting: dose: 25.0 mg/kg/injection, schedule: Q01DX009 (ip), vehicle: saline with Tween-80.
The mark [14] stands for this setting: dose: 12.5 mg/kg/injection, schedule: Q01DX009 (ip), vehicle: Klucel (hydroxypropylcellulose) (HPC).
The mark [15] stands for this setting: dose: 100.0 mg/kg/injection, schedule: Q04DX003 (ip), vehicle: saline.
Where [16] appears, read: dose: 200.0 mg/kg/injection, schedule: Q04DX003 (ip), vehicle: saline.
[17] abbreviates: dose: 400.0 mg/kg/injection, schedule: Q04DX003 (ip), vehicle: saline.

“And” between values parts separate entries of the source, which are not always exact repeats. Identical values can stand only once. Inconclusive results and toxic doses are left out.

As to `O=C1c2ccccc2C(=O)c2c(NCCCCCO)ccc(NCCCCCO)c21`, the T/C (dose: 8.0 mg/kg/injection, schedule: Q01DX009 (ip), vehicle: Klucel (hydroxypropylcellulose) (HPC)) is 99 % of control; the T/C (dose: 16.0 mg/kg/injection, schedule: Q01DX009 (ip), vehicle: Klucel (hydroxypropylcellulose) (HPC)) was 95 % of control; the T/C (dose: 32.0 mg/kg/injection, schedule: Q01DX009 (ip), vehicle: Klucel (hydroxypropylcellulose) (HPC)) was 91 % of control.

Regarding `CCOC(=O)C(Cc1ccc(O)cc1)Nc1nc2ccccc2o1` (stereo not drawn), the T/C is 103 % of control under setting [1]; 106 % of control under setting [2]; 106 % of control under setting [3]; 96 % of control (dose: 400.0 mg/kg/injection, schedule: Q01DX009 (ip), vehicle: saline with Tween-80).

For the compound `COc1cc2c(cc1OC)C1CCN3CCCC3N1CC2` (stereo not drawn), the T/C by setting is: under setting [4], 105 % of control; (dose: 50.0 mg/kg/injection, schedule: Q01DX009 (ip), vehicle: Klucel (hydroxypropylcellulose) (HPC)) 105 % of control; (dose: 100.0 mg/kg/injection, schedule: Q01DX009 (ip), vehicle: Klucel (hydroxypropylcellulose) (HPC)) 86 % of control and 100 % of control and 116 % of control.

Consider `CCCCNC=O`, for which the T/C by setting is: under setting [5], 102 % of control; under setting [6], 102 % of control; under setting [7], 116 % of control.

Consider `CC(C)(C)OC(=O)NCCCCC(NC(=O)OCc1ccccc1)C(=O)ON1C(=O)CCC1=O` (stereo not drawn), for which the T/C reads like this: under setting [1], 98 % of control; under setting [2], 92 % of control; under setting [3], 87 % of control.

On to `O=[N+]([O-])c1ccc2c(c1)Cc1cc(Br)ccc1-2`, for which the T/C under setting [8] is 97 % of control, the T/C under setting [9] is 100 % of control and the T/C under setting [10] was 100 % of control.

As to `CC1OC(O[C@H]2C[C@](O)(C(C)O)Cc3c(O)c4c(c(O)c32)C(=O)c2c(O)cccc2C4=O)CC(NC=O)C1O` (stereo partly drawn), the T/C runs as follows: (dose: 2.0 micrograms/kg/injection, schedule: Q01DX009 (ip), vehicle: saline) 154 % of control; (dose: 4.0 micrograms/kg/injection, schedule: Q01DX009 (ip), vehicle: saline) 154 % of control; (dose: 8.0 micrograms/kg/injection, schedule: Q01DX009 (ip), vehicle: saline) 192 % of control; (dose: 16.0 micrograms/kg/injection, schedule: Q01DX009 (ip), vehicle: saline) 249 % of control; (dose: 32.0 micrograms/kg/injection, schedule: Q01DX009 (ip), vehicle: saline) 195 % of control.

Regarding `c1ccc2c(NCCCCCCNc3c4ccccc4nc4ccccc34)c3ccccc3nc2c1`, the T/C reads like this: (dose: 1.25 mg/kg/injection, schedule: Q01DX009 (ip), vehicle: Klucel (hydroxypropylcellulose) (HPC)) 124 % of control; (dose: 10.0 mg/kg/injection, schedule: Q01DX009 (ip), vehicle: Klucel (hydroxypropylcellulose) (HPC)) 174 % of control; (dose: 20.0 mg/kg/injection, schedule: Q01DX009 (ip), vehicle: Klucel (hydroxypropylcellulose) (HPC)) 179 % of control.

Turning to `O=C(NC1CCc2ccccc21)c1ccccc1` (stereo not drawn), the T/C was 100 % of control under setting [11]; 92 % of control under setting [12]; 91 % of control and 95 % of control under setting [13]; 90 % of control under setting [2].

Consider `Cc1c2cc(Cl)c3ccccc3c2c[n+]2ccccc12`, for which the T/C (dose: 3.12 mg/kg/injection, schedule: Q01DX009 (ip), vehicle: saline with Tween-80) was 110 % of control; the T/C under setting [11] was 113 % of control; the T/C under setting [12] was 110 % of control; the T/C under setting [13] was 115 % of control; the T/C under setting [1] is 115 % of control.

Take `CC1C2CC3C(OC(=O)C13)C2I` (stereo not drawn): the T/C by setting is: under setting [2], 107 % of control; under setting [3], 89 % of control.

With `CCC(C)C(C)(COC(N)=O)COC(N)=O` (stereo not drawn), the T/C runs as follows: under setting [8], 97 % of control; under setting [9], 102 % of control; under setting [10], 105 % of control.

Consider `CCCCCCC1CCC(N)CC1` (stereo not drawn), for which the T/C under setting [14] is 86 % of control.

`CCC1CC(O)c2c(O)c3c(c(O)c2C1O)C(=O)c1cccc(O)c1C3=O` (stereo not drawn) (tested in a mixture with another compound): the T/C (dose: 0.01 mg/kg/injection, schedule: Q01DX009 (ip), vehicle: saline) was 95 % of control; the T/C (dose: 0.03 mg/kg/injection, schedule: Q01DX009 (ip), vehicle: saline) was 86 % of control; the T/C (dose: 0.06 mg/kg/injection, schedule: Q04DX003 (ip), vehicle: saline) was 102 % of control; the T/C (dose: 0.12 mg/kg/injection, schedule: Q04DX003 (ip), vehicle: saline) was 109 % of control; the T/C (dose: 15.0 micrograms/kg/injection, schedule: Q01DX009 (ip), vehicle: saline) is 119 % of control.

For `O=C(O)/C=C\C(=O)Nc1ccccn1`, the T/C reads like this: (dose: 5.0 mg/kg/injection, schedule: Q01DX009 (ip), vehicle: saline) 100 % of control; (dose: 10.0 mg/kg/injection, schedule: Q01DX009 (ip), vehicle: saline) 100 % of control; (dose: 30.0 mg/kg/injection, schedule: Q01DX009 (ip), vehicle: saline) 112 % of control; (dose: 60.0 mg/kg/injection, schedule: Q01DX009 (ip), vehicle: saline) 109 % of control.

On to `N#[N+]c1c(O)cc(S(=O)(=O)O)c2ccccc12`, for which the T/C reads like this: under setting [15], 95 % of control; under setting [16], 93 % of control; under setting [17], 90 % of control.

As to `CC(C)(CO)C(O)C(=O)NNCc1ccccc1` (stereo not drawn), the T/C reads like this: (dose: 25.0 mg/kg/injection, schedule: Q04DX003 (ip), vehicle: Klucel (hydroxypropylcellulose) (HPC)) 102 % of control; (dose: 25.0 mg/kg/injection, schedule: Q04DX003 (ip), vehicle: saline) 95 % of control; (dose: 50.0 mg/kg/injection, schedule: Q04DX003 (ip), vehicle: Klucel (hydroxypropylcellulose) (HPC)) 90 % of control; (dose: 50.0 mg/kg/injection, schedule: Q04DX003 (ip), vehicle: saline) 99 % of control; under setting [15], 100 % of control; under setting [9], 92 % of control. For the same compound, the T/C runs as follows: under setting [16], 100 % of control; under setting [10], 95 % of control; under setting [17], 91 % of control.

Consider `COc1c(OC(C)=O)cc2c(OC(C)=O)c1CC(C)CC(OC)C(O)C(C)/C=C(\C)C(OC(N)=O)C(OC)/C=C\C=C(/C)C(=O)N2` (stereo not drawn), for which the T/C (dose: 12.5 mg/kg/injection, schedule: Q01DX005 (ip), vehicle: other) is 97 % of control; the T/C (dose: 25.0 mg/kg/injection, schedule: Q01DX005 (ip), vehicle: other) is 98 % of control; the T/C (dose: 50.0 mg/kg/injection, schedule: Q01DX005 (ip), vehicle: other) is 97 % of control; the T/C (dose: 100.0 mg/kg/injection, schedule: Q01DX005 (ip), vehicle: other) was 101 % of control; the T/C (dose: 200.0 mg/kg/injection, schedule: Q01DX005 (ip), vehicle: other) is 94 % of control.

On to `O=P(N1CC1)(N1CC1)N1CC1`, for which the T/C is 120 % of control (dose: 0.75 mg/kg/injection, schedule: Q01DX009 (ip), vehicle: saline with Tween-80); 110 % of control (dose: 1.0 mg/kg/injection, schedule: Q01DX009 (ip), vehicle: saline); 120 % of control (dose: 2.0 mg/kg/injection, schedule: Q01DX009 (ip), vehicle: saline).

Turning to `Oc1ccc(/C=N/NC(=S)NN2CCOCC2)nc1`, the T/C reads like this: (dose: 3.12 mg/kg/injection, schedule: Q01DX009 (ip), vehicle: Klucel (hydroxypropylcellulose) (HPC)) 104 % of control; (dose: 6.25 mg/kg/injection, schedule: Q01DX009 (ip), vehicle: Klucel (hydroxypropylcellulose) (HPC)) 103 % of control; under setting [14], 104 % of control; under setting [4], 108 % of control.

Take `CC/C(C)=C(/C(=O)O)c1ccccc1`: the T/C is 110 % of control under setting [2] and 94 % of control under setting [3].

Regarding `FC(F)(F)C(F)(Cl)C(Cl)(Cl)C(F)(F)F` (stereo not drawn), the T/C under setting [15] was 92 % of control, the T/C under setting [16] is 104 % of control and the T/C under setting [17] is 97 % of control.

For the compound `CC(=O)CC(=O)NCc1cccc(C)n1`, the T/C is 106 % of control under setting [5], 111 % of control under setting [6] and 112 % of control under setting [7].
